Test results from ChEMBL document CHEMBL1201862, “PubChem BioAssay data set” (2004).
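These data come from cells grown in 96-well plates and exposed to compound for 48 hours at five concentrations. At the GI50, growth is halved.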 Active and inactive are the calls of the source. Rule as the data show it: active = GI50 up to about 1.1 µM and inactive = higher.

Assays:
Assay in all cases: DTP human tumour cell line panel, 48 h
[1] = tested on: CCRF-CEM
[2] = tested on: A498
[3] = tested on: 786-0
[4] = tested on: CAKI-1
[5] = tested on: SR
[6] = tested on: ACHN
[7] = tested on: Malme-3M
[8] = tested on: OVCAR-3
[9] = tested on: SF-268
[10] = tested on: HL-60
[11] = tested on: A549
[12] = tested on: UACC-257
[13] = tested on: UACC-62
[14] = tested on: TK-10
[15] = tested on: UO-31
[16] = tested on: SK-OV-3

Row | Structure (SMILES) | GI50 [1] | GI50 [2] | GI50 [3] | GI50 [4] | GI50 [5] | GI50 [6] | GI50 [7] | GI50 [8] | GI50 [9] | GI50 [10] | GI50 [11] | GI50 [12] | GI50 [13] | GI50 [14] | GI50 [15] | GI50 [16]
1 | COc1cc2c(cc1O)[C@@]1(Cc3ccc(OC)c(OC)c3)CCC(=O)N1CC2 | > 100 µM (inactive) | > 100 µM (inactive) | > 100 µM (inactive) | > 100 µM (inactive) | 61.8 µM (inactive) | > 100 µM (inactive) | 68.4 µM (inactive) | > 100 µM (inactive) | > 100 µM (inactive) | > 100 µM (inactive) | > 100 µM (inactive) | > 100 µM (inactive) | > 100 µM (inactive) | > 100 µM (inactive) | 63.2 µM (inactive) | 
2 | CC(=O)OC(CCC1(C)OC1COc1ccc(CCNC(=O)c2ccccc2)cc1)C(C)(C)OC(C)=O (stereo unspecified) | 7.18 µM (inactive) |  | > 100 µM (inactive) | 19 µM (inactive) | 0.493 µM (active) | 5 µM (inactive) | 15.3 µM (inactive) | 10.3 µM (inactive) | 74.8 µM (inactive) | 25.7 µM (inactive) | 13.1 µM (inactive) | 2.13 µM (inactive) | 14.3 µM (inactive) | 49.3 µM (inactive) | 29.4 µM (inactive) | > 100 µM (inactive)
3 | COc1cccc2c1C(=O)c1c(O)c3c(c(O)c1C2=O)C[C@@](O)(C(C)=O)C[C@@H]3OC1CC([N+]([O-])(Cc2ccccc2)Cc2ccccc2)C(O)C(C)O1 (stereo partly specified) | 0.399 µM (active) | 2.46 µM (inactive) | 1.44 µM (inactive) | 1.14 µM (inactive) | 0.179 µM (active) | 1.22 µM (inactive) |  | 1.73 µM (inactive) |  | 1.42 µM (inactive) | 1.29 µM (inactive) | 1.71 µM (inactive) | 1.47 µM (inactive) | 1.6 µM (inactive) | 1.27 µM (inactive) | 4.2 µM (inactive)
4 | Cc1cc(C)c(C2[C@H]3C(=O)N(c4ccc(Cc5ccc(N6C(=O)[C@@H]7ON(c8ccccc8)C(c8c(C)cc(C)cc8C)[C@@H]7C6=O)cc5)cc4)C(=O)[C@H]3ON2c2ccccc2)c(C)c1 (stereo partly specified) | > 100 µM (inactive) | > 100 µM (inactive) | > 100 µM (inactive) | 57.9 µM (inactive) | > 100 µM (inactive) | > 100 µM (inactive) | > 100 µM (inactive) | > 100 µM (inactive) | > 100 µM (inactive) | 46.3 µM (inactive) | > 100 µM (inactive) | > 100 µM (inactive) | > 100 µM (inactive) | > 100 µM (inactive) | > 100 µM (inactive) | > 100 µM (inactive)
5 | Cc1cc(C)nc(NS(=O)(=O)c2ccc(NC(=O)c3cccc4c(=O)c5ccccc5[nH]c34)cc2)n1 | 13 µM (inactive) | 18.2 µM (inactive) | 18.7 µM (inactive) | 33 µM (inactive) | 24.8 µM (inactive) | 21.6 µM (inactive) | 17.9 µM (inactive) | 19.5 µM (inactive) | 21.8 µM (inactive) | 16.6 µM (inactive) | 22.7 µM (inactive) | 17.9 µM (inactive) | 20 µM (inactive) | 25.9 µM (inactive) | 22.2 µM (inactive) | 0.18 µM (active)
6 | CN1C(=O)C(=O)c2cc3c(c4c2c1cc1ccccc14)OCO3 [CEPHARADIONE A] | 8.95 µM (inactive) | > 100 µM (inactive) | 7.23 µM (inactive) | 31.3 µM (inactive) | 7.5 µM (inactive) | 18.8 µM (inactive) | 38.8 µM (inactive) | 62.1 µM (inactive) | 21.9 µM (inactive) | 38.5 µM (inactive) | 33.7 µM (inactive) | 51.5 µM (inactive) | 16.9 µM (inactive) | 52.5 µM (inactive) | 20.2 µM (inactive) | 50.4 µM (inactive)
7 | CC1CCN(CCC(=O)CC(c2ccccc2)c2c(O)c3ccccc3oc2=O)CC1 (stereo unspecified) | > 100 µM (inactive) | > 100 µM (inactive) | > 100 µM (inactive) | > 100 µM (inactive) | > 100 µM (inactive) | > 100 µM (inactive) |  | > 100 µM (inactive) | > 100 µM (inactive) | > 100 µM (inactive) | > 100 µM (inactive) | > 100 µM (inactive) | > 100 µM (inactive) | > 100 µM (inactive) | > 100 µM (inactive) | > 100 µM (inactive)
8 | CC(C)Cc1cc(CCC(=O)Nc2ccccc2[N+](=O)[O-])nc(NC#N)n1 | > 100 µM (inactive) | > 100 µM (inactive) | > 100 µM (inactive) | > 100 µM (inactive) | > 100 µM (inactive) | > 100 µM (inactive) | > 100 µM (inactive) | > 100 µM (inactive) | > 100 µM (inactive) | > 100 µM (inactive) | > 100 µM (inactive) | > 100 µM (inactive) | > 100 µM (inactive) | > 100 µM (inactive) | > 100 µM (inactive) | > 100 µM (inactive)
9 | NC(CCCNc1cccc(O)c1)C(=O)O (stereo unspecified) | > 100 µM (inactive) | > 100 µM (inactive) | > 100 µM (inactive) | > 100 µM (inactive) | > 100 µM (inactive) | > 100 µM (inactive) | > 100 µM (inactive) | > 100 µM (inactive) | > 100 µM (inactive) | > 100 µM (inactive) | > 100 µM (inactive) | > 100 µM (inactive) | > 100 µM (inactive) | > 100 µM (inactive) | > 100 µM (inactive) | > 100 µM (inactive)
10 | O=C1CCCN(c2ccccc2)N1 |  | > 100 µM (inactive) | > 100 µM (inactive) | > 100 µM (inactive) | > 100 µM (inactive) | > 100 µM (inactive) | > 100 µM (inactive) | > 100 µM (inactive) | > 100 µM (inactive) | > 100 µM (inactive) | > 100 µM (inactive) | > 100 µM (inactive) | > 100 µM (inactive) |  | > 100 µM (inactive) | > 100 µM (inactive)
11 | CCN(CC)CCC1CC/C(=C\c2ccc(OC)cc2)C1=O (stereo unspecified) | > 100 µM (inactive) | 74.8 µM (inactive) | > 100 µM (inactive) | > 100 µM (inactive) | 55.8 µM (inactive) | > 100 µM (inactive) | > 100 µM (inactive) | > 100 µM (inactive) | > 100 µM (inactive) | 47.8 µM (inactive) | > 100 µM (inactive) | 32 µM (inactive) | 17.5 µM (inactive) | > 100 µM (inactive) | 58.1 µM (inactive) | 
12 | Cc1ccc(/C=C/C(=O)CCN(C)C)cc1 | 24.7 µM (inactive) | > 100 µM (inactive) | 17.9 µM (inactive) | 13.9 µM (inactive) | 21.4 µM (inactive) | 18.5 µM (inactive) | 20.7 µM (inactive) | 20.3 µM (inactive) | 24.9 µM (inactive) | 21.1 µM (inactive) | 20.7 µM (inactive) | 14.7 µM (inactive) | 14.6 µM (inactive) | 16.5 µM (inactive) | 18.3 µM (inactive) | 45 µM (inactive)
13 | C[C@]1(CO)CCC[C@@]2(C)C1CC[C@H]1CC3C[C@]12CC[C@]3(C)O (stereo partly specified) | 0.213 µM (active) |  | > 100 µM (inactive) | > 100 µM (inactive) | 83.2 µM (inactive) | 74.6 µM (inactive) | > 100 µM (inactive) | > 100 µM (inactive) | > 100 µM (inactive) | 5.22 µM (inactive) | 70.5 µM (inactive) | 54.2 µM (inactive) | > 100 µM (inactive) | 37.5 µM (inactive) | > 10 µM (inactive) | > 100 µM (inactive)
14 | CN1N=C2NCCNC3=NN(C)/C(=N/CC/N=C/1S2)S3 | > 100 µM (inactive) | > 100 µM (inactive) | > 100 µM (inactive) |  | > 100 µM (inactive) | > 100 µM (inactive) |  |  | > 100 µM (inactive) | > 100 µM (inactive) | > 100 µM (inactive) | > 100 µM (inactive) | > 100 µM (inactive) |  |  | 
15 | COc1cc(C)c(O)c(C(=O)O)c1 | > 100 µM (inactive) | > 100 µM (inactive) | > 100 µM (inactive) | > 100 µM (inactive) | > 100 µM (inactive) | > 100 µM (inactive) | > 100 µM (inactive) | > 100 µM (inactive) | > 100 µM (inactive) |  | > 100 µM (inactive) | > 100 µM (inactive) | > 100 µM (inactive) | > 100 µM (inactive) | > 100 µM (inactive) | > 100 µM (inactive)
16 | CCOC(=O)Oc1c(OC)cc(C(=O)NC2CCc3cc(OC)c(OC)c(OC)c3-c3ccc(SC)c(=O)cc32)cc1OC (stereo unspecified) | < 0.007 µM (active) | 0.223 µM (active) | 0.239 µM (active) |  | < 0.007 µM (active) | 0.537 µM (active) | 0.204 µM (active) | 0.0322 µM (active) | 0.0916 µM (active) | < 0.007 µM (active) | 0.428 µM (active) | 0.0743 µM (active) | 0.0528 µM (active) | 0.474 µM (active) | 1.5 µM (inactive) | 0.0513 µM (active)
17 | COC(=O)C(C#N)=C1c2ccccc2Oc2ccccc21 | 32.4 µM (inactive) | > 100 µM (inactive) | 63.7 µM (inactive) | > 100 µM (inactive) |  | 66.7 µM (inactive) | 93.3 µM (inactive) | 21.5 µM (inactive) | 63 µM (inactive) | 20.8 µM (inactive) | > 100 µM (inactive) | > 100 µM (inactive) | 35.7 µM (inactive) | > 100 µM (inactive) | > 100 µM (inactive) | 42.1 µM (inactive)
18 | COc1cc([C@@H]2c3cc4c(cc3C(N)C3COC(=O)[C@@H]32)OCO4)cc(OC)c1O (stereo partly specified) | 0.339 µM (active) |  | 0.537 µM (active) | 0.163 µM (active) | 0.0857 µM (active) | 0.146 µM (active) |  |  | 0.399 µM (active) | 0.19 µM (active) | 0.337 µM (active) | 0.232 µM (active) | 0.037 µM (active) | 0.401 µM (active) | 0.695 µM (active) | 
